Molecular target: Human recombinant DHX9 protein (Homo sapiens (Human), UniProt Q08211)
Assay: DHX9 ATPase assay (ADP-Glo)
Type: biochemical
Conditions: for IC50: read-out: DHX9 Biochemical Inflection Point

Human recombinant DHX9 protein, sequence (Q08211 whole entry): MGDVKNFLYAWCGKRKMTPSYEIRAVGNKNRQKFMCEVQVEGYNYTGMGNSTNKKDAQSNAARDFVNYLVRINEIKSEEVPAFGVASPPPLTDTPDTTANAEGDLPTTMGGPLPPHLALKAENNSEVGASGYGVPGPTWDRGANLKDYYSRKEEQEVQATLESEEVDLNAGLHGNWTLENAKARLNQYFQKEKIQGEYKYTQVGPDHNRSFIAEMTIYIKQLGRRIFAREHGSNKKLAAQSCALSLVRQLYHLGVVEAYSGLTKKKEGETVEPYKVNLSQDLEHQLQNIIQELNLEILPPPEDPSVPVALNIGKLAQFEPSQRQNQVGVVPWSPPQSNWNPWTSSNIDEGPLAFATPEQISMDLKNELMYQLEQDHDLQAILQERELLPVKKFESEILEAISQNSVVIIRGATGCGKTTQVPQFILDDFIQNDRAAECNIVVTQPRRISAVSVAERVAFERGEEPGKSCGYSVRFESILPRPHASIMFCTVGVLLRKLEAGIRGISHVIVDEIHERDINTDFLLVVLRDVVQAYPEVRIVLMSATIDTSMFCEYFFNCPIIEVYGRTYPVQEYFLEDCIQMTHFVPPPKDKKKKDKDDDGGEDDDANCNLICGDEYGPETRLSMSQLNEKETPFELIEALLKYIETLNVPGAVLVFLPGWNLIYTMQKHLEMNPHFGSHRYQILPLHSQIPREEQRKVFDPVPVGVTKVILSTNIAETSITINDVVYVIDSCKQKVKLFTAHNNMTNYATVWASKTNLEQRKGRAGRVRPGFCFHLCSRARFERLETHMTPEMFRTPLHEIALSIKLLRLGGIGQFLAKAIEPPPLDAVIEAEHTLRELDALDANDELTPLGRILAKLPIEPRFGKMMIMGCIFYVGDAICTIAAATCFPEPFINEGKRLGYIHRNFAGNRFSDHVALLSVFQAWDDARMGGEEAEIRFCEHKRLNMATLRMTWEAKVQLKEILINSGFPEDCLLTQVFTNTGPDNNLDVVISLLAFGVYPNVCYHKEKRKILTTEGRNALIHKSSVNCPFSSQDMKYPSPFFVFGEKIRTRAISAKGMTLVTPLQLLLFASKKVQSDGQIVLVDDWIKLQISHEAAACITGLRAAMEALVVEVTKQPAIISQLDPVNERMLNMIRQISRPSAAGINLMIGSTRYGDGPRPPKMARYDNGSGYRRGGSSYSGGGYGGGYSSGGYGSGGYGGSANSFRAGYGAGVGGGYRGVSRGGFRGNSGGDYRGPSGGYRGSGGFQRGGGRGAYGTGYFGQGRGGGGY

Structure (SMILES)	DHX9 Biochemical Max Inhibition	IC50
CS(=O)(=O)Nc1cc(Cl)cc(NC(=O)c2cc(-c3ncccc3OCc3ccccc3)cs2)c1 [Example 29]	65.2%	48.2 nM
Cc1sc(C(=O)Nc2cc(Cl)cc(NS(C)(=O)=O)c2)cc1-c1ncc(F)cc1N1CCN(S(C)(=O)=O)CC1 [Example 506]	47.4	184 nM
Cn1cc(C(=O)Nc2cc(Cl)cc(NS(C)(=O)=O)c2)cc1-c1ccc(N2CC(F)C2)cn1 [Example 539]	76	18.1 nM
Cc1cc(C(=O)Nc2cc(F)cc(NS(C)(=O)=O)c2)n[nH]1 [Example 3]	76.4%	648 nM
CS(=O)(=O)Nc1cc(Cl)cc(NC(=O)c2cc(-c3ccccc3)c(CO)s2)c1 [Example 120, N-(3-chloro-5-(methylsulfonamido)phenyl)-5-(hydroxymethyl)-4-phenylthiophene-2-carboxamide]	72.5%	8.9 nM
COc1cc(N2CC(F)(F)C2)cnc1-n1cc(C(=O)Nc2cc(Cl)cc(NS(C)(=O)=O)c2)cc1C [Example 421]	81.6	10.8 nM
Cn1cc(C(=O)Nc2cc(F)cc(NS(C)(=O)=O)c2)cc1-c1ncc(F)cc1F [Example 558]	78	45.8 nM
CCS(=O)(=O)Nc1cc(Cl)cc(NC(=O)c2cc(C)n(-c3ncc(F)cc3F)c2)c1 [Example 445]	70.5	80.8 nM
Cc1sc(C(=O)Nc2cc(Cl)cc(NS(C)(=O)=O)c2)cc1-c1ncc(N2CCC3(COC3)C2)cc1F [Example 512]	74.3	10.9 nM
CS(=O)(=O)Nc1cc(Cl)cc(NC(=O)c2cc3cccnn3c2)c1 [Example 292]	68.5%	76 nM
CS(=O)(=O)Nc1cc(F)cc(NC(=O)c2cc(-c3ccccc3O)cs2)c1 [Example 114]	66.4%	43.5 nM
Cc1cc(C(=O)Nc2cc(Cl)cc(NS(C)(=O)=O)c2)cn1-c1ncc(N2CC(F)(F)C2)cc1OC(C)C [Example 672]	65.1	97.8 nM
CCS(=O)(=O)Nc1cc(Cl)cc(NC(=O)c2cc(-c3ncc(F)cc3Cl)c(C)s2)c1 [Example 355]	69.9%	34.1 nM
CS(=O)(=O)Nc1cc(Cl)cc(NC(=O)c2cnn(-c3c(F)cccc3OCc3cccc(F)c3)c2)c1 [Example 211]	65.4%	62.4 nM
Cn1cc(C(=O)Nc2cc(Cl)cc(NS(C)(=O)=O)c2)cc1-c1ncccc1OCC1CC1 [Example 584]	63.5	17 nM
CS(=O)(=O)Nc1cc(Cl)cc(NC(=O)c2cnn(CCc3ccccc3)c2)c1 [Example 308]	60.6%	375 nM
CS(=O)(=O)Nc1cc(Cl)cc(NC(=O)c2cc(-c3ncc(N4CC(C(F)(F)F)C4)cn3)n(CC(F)F)c2)c1 [Example 508]	67.1	96.5 nM
Cc1cc(C(=O)Nc2cc(Cl)cc(NS(C)(=O)=O)c2)cn1-c1ncc(N2CC(F)(F)C2)cc1C#N [Example 415]	99.9	15.4 nM
CS(=O)(=O)Nc1cc(Cl)cc(NC(=O)c2cc(-c3ncc(C(F)(F)F)cn3)cs2)c1 [Example 369]	61.5%	57.6 nM

Structure (SMILES)	DHX9 Biochemical Max Inhibition	IC50
Cn1cc(C(=O)Nc2cc(Cl)cc(NS(=O)(=O)C3CC3)c2)cc1-c1ccc(N2CC(F)(F)C2)cn1 [Example 530]	83.7	427 nM
Cc1sc(C(=O)Nc2cc(Cl)cc(NS(C)(=O)=O)c2)cc1-c1ccc(N2CCC(F)(F)C2)cn1 [Example 485]	66.5	19.1 nM
CS(=O)(=O)Nc1cc(Br)cc(NC(=O)c2cnn(-c3ccc(C#N)cn3)c2)c1 [Example 41]	40.3%	47.4 nM
CCOc1cnc(-c2cc(C(=O)Nc3cc(Cl)cc(NS(=O)(=O)CC)c3)sc2C)nc1 [Example 365]	78.7%	20.5 nM
CS(=O)(=O)Nc1cc(Br)cc(NC(=O)c2cc(-c3ncccc3OCc3ccccc3)cs2)c1 [Example 32]	56.3%	38.3 nM
CS(=O)(=O)Nc1cc(Br)cc(NC(=O)c2cnn(-c3cc(C#N)ccn3)c2)c1 [Example 38]	44.7%	65.5 nM
Cn1cc(C(=O)Nc2cc(Cl)cc(NS(C)(=O)=O)c2)cc1-c1ncc(N2CCC2)cn1 [Example 521]	71.8	3.5 nM
CS(=O)(=O)Nc1cc(Cl)cc(NC(=O)c2cc(-c3ncc(F)cn3)n(CC(F)(F)F)c2)c1 [Example 562]	62.3	64.5 nM
CN1CCN(c2cnc(-n3cc(C(=O)Nc4cc(Cl)cc(NS(C)(=O)=O)c4)cn3)nc2)CC1=O [Example 183]	67.1%	20.1 nM
CCCS(=O)(=O)Nc1cc(Cl)cc(NC(=O)c2cc(-c3ncccc3C)cs2)c1 [Example 372]	49.2%	402 nM
CS(=O)(=O)Nc1cc(Cl)cc(NC(=O)c2cc(-c3ccc(N4CC5(COC5)C4)cn3)n(CC(F)(F)F)c2)c1 [Example 278]	74.1%	44.2 nM
COc1cc2cc(C(=O)Nc3cc(Cl)cc(NS(C)(=O)=O)c3)sc2cc1OC [Example 291]	59.7%	144 nM
Cc1sc(C(=O)Nc2cc(Cl)cc(NS(C)(=O)=O)c2)cc1-c1ncc(N2CC[Si](C)(C)CC2)cc1F [Example 473]	54.5	313 nM
Cn1cc(C(=O)Nc2cc(Cl)cc(NS(C)(=O)=O)c2)cc1-c1ncc(N2CCC(F)(F)CC2)cc1F [Example 469]	83.4	22.5 nM
CS(=O)(=O)Nc1cc(Cl)cc(NC(=O)c2cnn([C@H]3CCC[C@H]3Oc3ccccc3)c2)c1 (single isomer, unassigned) [Example 259]	69.2%	–
CC1(C)CC(n2cc(C(=O)Nc3cc(Cl)cc(NS(C)(=O)=O)c3)cn2)CCN1 (stereo not shown) [Example 315]	66.9%	75.3 nM
Cn1cc(C(=O)Nc2cc(Cl)cc(NS(C)(=O)=O)c2)cc1-c1ncc(F)cc1OCc1cnco1 [Example 268]	73.1%	9.4 nM
CCc1sc(C(=O)Nc2cc(Cl)cc(NS(C)(=O)=O)c2)cc1-c1ccc(F)cn1 [Example 589]	69.7	–
CS(=O)(=O)Nc1cc(Br)cc(NC(=O)c2cnn(-c3ccc(F)cn3)c2)c1 [Example 39]	52.3%	70.1 nM

Structure (SMILES)	DHX9 Biochemical Max Inhibition	IC50
Cc1sc(C(=O)Nc2cc(Cl)cc(NS(C)(=O)=O)c2)cc1-c1ncc(N2CCC3(CC2)CC3(F)F)cc1F [Example 478]	66.8	150 nM
CS(=O)(=O)Nc1cc(Br)cc(NC(=O)c2cnn(-c3ccc(C(F)(F)F)cn3)c2)c1 [Example 43]	49.8%	258 nM
Cn1nc(-c2ccccc2OCc2ccccc2)cc1C(=O)Nc1cc(Cl)cc(NS(C)(=O)=O)c1 [Example 139]	59.1%	6650 nM
CN(C)CCOc1cnc(-c2cc(C(=O)Nc3cc(Cl)cc(NS(C)(=O)=O)c3)cn2C)c(F)c1 [Example 646]	66.6	7.9 nM
Cn1cc(C(=O)Nc2cc(Cl)cc(NS(C)(=O)=O)c2)cc1-c1ccccc1/C=C/c1cncc(F)c1 [Example 727]	55.3	9030 nM
Cn1cc(C(=O)Nc2cc(Cl)cc(NS(C)(=O)=O)c2)cc1-c1ncc(N2CCC(F)(F)C2)cn1 [Example 526]	61.7	17.4 nM
CC(C)(C)Oc1cnc(-c2csc(C(=O)Nc3cc(Cl)cc(NS(C)(=O)=O)c3)c2)nc1 [Example 379]	65.4%	41.8 nM
Cc1sc(C(=O)Nc2cc(Cl)cc(NS(C)(=O)=O)c2)cc1-c1nccn1CCc1ccccc1 [Example 698]	75.4	1050 nM
Cc1sc(C(=O)Nc2cc(Cl)cc(NS(C)(=O)=O)c2)cc1-c1ncc(OC2CN(C)C2)cc1F [Example 635]	68.5	2 nM
Cc1cc(C(=O)Nc2cc(Cl)cc(NS(C)(=O)=O)c2)cn1-c1ccc(N2CCCC2=O)cn1 [Example 410]	69.3	20.5 nM
Cc1sc(C(=O)Nc2cc(Cl)cc(NS(C)(=O)=O)c2)cc1-c1ncc(OC(C)(C)C)cc1F [Example 381]	67.4%	–
COc1cc(F)cnc1-c1cc(C(=O)Nc2cc(Cl)cc(NS(C)(=O)=O)c2)cn1C [Example 568, N-(3-chloro-5-methanesulfonamidophenyl)-5-(5-fluoro-3-methoxypyridin-2-yl)-1-methylpyrrole-3-carboxamide]	77.3	7.9 nM
Cc1sc(C(=O)Nc2cc(Cl)cc(NS(C)(=O)=O)c2)cc1-c1ncccc1OC(C)c1cc(F)cc(F)c1 (single isomer, unassigned) [Example 632]	71.5	241 nM
Cc1sc(C(=O)Nc2cc(Cl)cc(NS(=O)(=O)CCO)c2)cc1-c1ncc(OC(C)C)cn1 [Example 582]	49.9	287 nM
COc1ccc2cc(C(=O)Nc3cc(Cl)cc(NS(C)(=O)=O)c3)sc2c1 [Example 327]	63.3%	264 nM
CS(=O)(=O)Nc1cc(Cl)cc(NC(=O)c2cccc(-c3ccnc(Cl)c3)c2)c1 [Example 102, N-(3-chloro-5-(methylsulfonamido)phenyl)-3-(2-chloropyridin-4-yl)benzamide]	61.8%	762 nM
CS(=O)(=O)Nc1cc(Cl)cc(NC(=O)c2cc(-c3ncccc3Nc3ncccn3)cs2)c1 [Example 237]	73.5%	21 nM
Cc1sc(C(=O)Nc2cc(Cl)cc(NS(C)(=O)=O)c2)cc1-c1ncc(N2CCC(F)(F)C2)cn1 [Example 479]	69.6	17.5 nM
